In patent US20220264924A1, “METHODS AND COMPOSITIONS FOR IMPROVED TASTE QUALITY” (ALMENDRA PTE LTD, priority 2019, published 2022):
Where “and” joins values, the source holds several entries; their conditions need not be identical. Equal entries are not always repeated.

Assays:
[1] = system: human subject (sensory testing); conditions: cited from earlier work; for sweetness potency, times higher than sucrose: relative to sucrose (Tanaka 1987; Phillips 1989); for sweetness potency, times more potent than sucrose: sensory evaluations, relative to sucrose (Crammer and Ikan 1986)
[2] = system: human subject (sensory testing); assay: Sensory test: taste modulator effect on umami taste of MSG (Example 2); format: in vivo; conditions: 0-15 scale; average of three trials; MSG 12 mM
Procedure: (§1) Representative formulations within the scope of the disclosed formulations were prepared and subjected to sensory testing by the methods described above in the section entitled Testing Methodology, where formulations were rated on a 0-15 scales for the Taste Attributes: Umami Intensity (UI), Saltiness Intensity (SaI), Sourness Intensity (SoI), Bitterness Intensity (BI), Astringency Intensity (AI), and Mouthfeel Intensity (MF). In sensory test sessions, the number of samples evaluated was limited to four. In the initial phase of formulation screening, testing was carried out in triplicate with a single subject extensively experienced in the technique of flavor profile analysis.
(§2) This study assessed the effect of a disclosed taste modulation formulation on umami taste and other sensory perceptions as described above for the test method, i.e., Umami Intensity (UI), Sourness Intensity (SoI), Saltiness Intensity (SaI), Bitterness Intensity (BI), Mouthfeel Intensity (MF) and Astringency Intensity (AI).
(§3) The sensory protocol was as follows: • 1. Scramble ambient temperature samples so that each test solution is an unknown sample for sensory testing. • 2. Rinse mouth with 15 mL water while swishing vigorously followed by expectoration. • 3. Take 15 mL of the sample into the mouth and swish around vigorously for 15 sec scaling Umami Intensity (U), Sourness Intensity (So), Saltiness Intensity (Sa), Bitterness Intensity (B), Mouthfeel Intensity (MF) and Astringency Intensity (A) on 0-15 scales during this period and recording them in a table. • 4. Expectorate sample, rinse mouth vigorously with 15 mL water and expectorate at 15 sec. • 5. Note any change in sensory perceptions over the next 2 min and record observations in a table. • 6. Rinse mouth with 15 mL water with vigorous agitation in the mouth for 15 sec and expectorate. • 7. Wait a minimum of 15 min and repeat with next sample. • 8. Break sample code to identify samples.
Briefly, a stock solution of 10 mM KCl (746 mg/L)/3 mM MgCl2.6H2O (610 mg/L)/3 mM CaCl2 (333 mg/L) in 1.00 L water was prepared in a 1 L E-flask, stirring to full dissolution. 100 mL portions of the mineral salt solution were then transferred to two 250 mL plastic-capped glass bottles and 100 mL portions of water were added to the other two 250 mL plastic-capped glass bottles. Sample completion was carried out by addition of MSG as follows for Sample Nos. 1-4.
Three independent trials were carried out and the data are summarized below in Table 1, with individual results from each trial and average of the three trials as indicated.

[3] = system: human subject (sensory testing); assay: Sensory test: taste modulator effect on mouthfeel with MSG, varied MgCl2/CaCl2 (Example 4); format: in vivo; conditions: 0-15 scale, 12 mM MSG Stock Solution
Procedure: as §1, §3
as §2, with “effects” for “effect”
The sensory protocol was as described above in Example 2.
Briefly, a MSG Stock Solution of 12 mM MSG ([…]) was prepared and 100 mL portions of it were added to four 250 mL plastic-capped glass bottles. Sample preparation was completed as follows:
Eight independent trials were carried out and the average results are summarized below in Table 3.

[4] = water (Kinghorn 2002); cited from earlier work
[5] = system: human subject (sensory testing); conditions: R in Sucrose Equivalents of Sweetness; C in % (w/v); linear fit; cited from earlier work
[6] = system: human subject (sensory testing); assay: Sweetness Linger of standards in the sensory testing methodology; format: in vivo; conditions: perceived sweetness intensity @ 120 sec; standards in water: 10% Sucrose, 500 PPM REBA
Excerpt: In various aspects, the present disclosure pertains to methods of testing the disclosed sweetener compositions, e.g., a sensory methodology or method for sweetener evaluation. In a particular aspect, the sensory methodology used is known as a “Flavor Profile Analysis” as has been previously described (see: B. T. Carr, S. D. Pecore, K. M. Gibes and G. E. DuBois, “Sensory Methods for Sweetener Evaluation”, Chapter 11 In Flavor Measurement, C. T. Ho and C. H. Manley, Eds., Marcel Dekker, New York, N.Y., 1993). The full set of sensory parameters that are assessed in the sensory testing method are: (a) Sweetness Intensity (which can be abbreviated in tables herein as “S”); (b) Sourness Intensity ((which can be abbreviated in tables herein as “So”); (c) Saltiness Intensity (which can be abbreviated in tables herein as “Sa”); (d) Bitterness Intensity (which can be abbreviated in tables herein as “B”); (e) Body/Mouthfeel Intensity (which can be abbreviated in tables herein as “B/MF”); (f) Astringency Intensity (which can be abbreviated in tables herein as “A”); (g) Sweetness Linger (which can be abbreviated in tables herein as “SL”); (h) Sweetness Appearance Time (which can be abbreviated in tables herein as “AT”); and (i) Sweetness Desensitization (which can be abbreviated in tables herein as “SD”). […]

In the case of `C[C@H](CC[C@@H](O[C@@H]1O[C@H](CO[C@@H]2O[C@H](CO)[C@@H](O)[C@H](O)[C@H]2O)[C@@H](O)[C@H](O)[C@H]1O[C@@H]1O[C@H](CO)[C@@H](O)[C@H](O)[C@H]1O)C(C)(C)O)[C@H]1CC[C@@]2(C)[C@@H]3CC=C4[C@@H](CC[C@H](O[C@@H]5O[C@H](CO[C@@H]6O[C@H](CO)[C@@H](O)[C@H](O)[C@H]6O)[C@@H](O)[C@H](O)[C@H]5O)C4(C)C)[C@]3(C)[C@H](O)C[C@]12C` [mogroside V], the “sweetness, times cane sugar” value ([1]; relative to cane sugar on a weight basis, estimated) is listed as “approximately 250 times”.
For `N[C@@H](CCC(=O)[O-])C(=O)O.O.[Na+]` [MSG Control 2, MSG-H2O], the “AI (Astringency Intensity) Ave” value [2] was 0.0, the “BI (Bitterness Intensity) Ave” value [2] was 3.0 and the “MF (Mouthfeel Intensity) Ave” value [2] was 3.0. For the same compound, the “Sal (Saltiness Intensity) Ave” value [2] was 2.0, the “Sol (Sourness Intensity) Ave” value [2] was 0.0 and the “UI (Umami Intensity) Ave” value [2] was 4.7.
For `C=C1C[C@@]23CC[C@H]4[C@@](C)(CCC[C@@]4(C)C(=O)O[C@@H]4O[C@H](CO)[C@@H](O)[C@H](O)[C@H]4O)[C@@H]2CC[C@]1(O[C@@H]1O[C@H](CO)[C@@H](O)[C@H](O)[C@H]1O[C@@H]1O[C@@H](C)[C@H](O)[C@@H](O)[C@H]1O)C3` [Dulcoside A], the “sweetness potency, times higher than sucrose” value [1] is given as 30 times.
For `N[C@@H](CCC(=O)[O-])C(=O)O.O.[Na+]` [MSG Control 1, MSG-H2O], the “AI (Astringency Intensity)” value ([3]; average of eight trials) was 0.0, the “BI (Bitterness Intensity)” value ([3]; average of eight trials) was 0.0 and the “MF (Mouthfeel Intensity)” value ([3]; average of eight trials) was 1.5. For the same compound, the “Sal (Saltiness Intensity)” value ([3]; average of eight trials) was 2.0, the “Sol (Sourness Intensity)” value ([3]; average of eight trials) was 0.0 and the “UI (Umami Intensity)” value ([3]; average of eight trials) was 5.0. The “MF rating, Mean” value ([3]; mean of eight trials) was 1.50, the “MF rating, individual trials” value ([3]; trials 1-8) was 1 (4×) and 2 (4×) and the “AI (Astringency Intensity) Ave” value [2] was 0.0. The “BI (Bitterness Intensity) Ave” value [2] was 3.0, the “MF (Mouthfeel Intensity) Ave” value [2] was 3.3 and the “Sal (Saltiness Intensity) Ave” value [2] was 2.0. For the same compound, the “Sol (Sourness Intensity) Ave” value [2] was 0.0 and the “UI (Umami Intensity) Ave” value [2] was 4.7.
For Rebaudioside C, the “sweetness potency, times higher than sucrose” value [1] is listed as 40-60 times.
For `C=C1C[C@@]23CC[C@H]4[C@@](C)(CCC[C@@]4(C)C(=O)O[C@@H]4O[C@H](CO)[C@@H](O)[C@H](O)[C@H]4O)[C@@H]2CC[C@]1(O[C@@H]1O[C@H](CO)[C@@H](O)[C@H](O)[C@H]1O[C@@H]1O[C@H](CO)[C@@H](O)[C@H](O)[C@H]1O)C3` [Stevioside], the “sweetness potency, times higher than sucrose” value [1] is given as 110-270 times.
For Rebaudioside B [REBB], the “sweetness potency, times more potent than sucrose” value [1] is listed as 300-350 times and the water solubility [4] is listed as “about 0.1%”.
For `OC[C@H]1O[C@@](CO)(O[C@H]2O[C@H](CO)[C@@H](O)[C@H](O)[C@H]2O)[C@@H](O)[C@@H]1O` [Sucrose], the “C/R Function” value [5] is listed as “R = C” and the “SL (Sweetness Linger)” value [6] is listed as 0.
In the case of `C=C1C[C@@]23CC[C@H]4[C@@](C)(CCC[C@@]4(C)C(=O)O[C@@H]4O[C@H](CO)[C@@H](O)[C@H](O)[C@H]4O)[C@@H]2CC[C@]1(O[C@@H]1O[C@H](CO)[C@@H](O)[C@H](O[C@@H]2O[C@H](CO)[C@@H](O)[C@H](O)[C@H]2O)[C@H]1O[C@@H]1O[C@H](CO)[C@@H](O)[C@H](O)[C@H]1O)C3` [Rebaudioside A], the “sweetness potency, times more potent than sucrose” value [1] is given as 350-450 times and the “SL (Sweetness Linger)” value [6] is given as 5.
